Results reported in patent publication US12577559B2, “Method for creating a cDNA sequencing library” (priority 2019, dated 2026).

Tested on: A549 cell line
Assay: RIF-Seq gene expression screen of compounds in A549 cells, 384 well plate
Format: cell-based
Experimental: To evaluate if RIF-Seq can be used to detect changes in gene expression due to action of compounds (drugs) and if gene expression signatures can be used to predict mechanism of action of the compound, the inventors performed screen of two compounds in various concentration (delivered to cells in DMSO) and controls (DMSO alone) in high throughput fashion on automated platforms. A549 cell line was seeded using automatic cell dispenser onto low volume imaging plate to concentration of 2 000 cell per well. After over-night incubation, drugs were manually added to cells according to schematics presented in the FIG. 16A, cells were fixated and RIF-Seq protocol was executed using automated robotic liquid handlers. […] Using Gene Set Enrichment Analysis (GESA) inventors compared the differential gene expression data of samples treated with 8.3 μM vorinostat and controls and which differently expressed genes are annotated to pre-defined gene sets contained in the Broad Institute “Hallmarks” list (FIG. 16D).
Cells were cultured in T25 and T75 cell culturing flasks at 37° C. under 5% CO2 in RPMI1640 medium (HeLa, BjHTERT, MCF-7) or F12K medium (A549) with 10% complete fetal bovine serum (FBS), penicillin-streptomycin, and glutamine, up to 80% confluency. Before seeding cells into plates, cells were washed with PBS and dislodged using Tripsin-EDTA and resuspended in fresh medium to a concentration of 66 cells/μL. Manually (100 μL volume, 96 well plate) or by using automatic cell dispenser (30 μL volume, 384 well plate) cells were transferred into desired vessels and incubated over-night. For 96 well plates, the cell culture media were removed and plate was washed twice with 100 μl cold PBS in each well. Then 100 μl 3.7% PFA solution was added to each well and incubated at room temperature for 15 min. For 384 well plates, […] of freshly prepared 16% formaldehyde was added to 30 μl of cell media to obtain a final formaldehyde concentration of 3.7%. Fixation was performed for 20 minutes at room temperature. […]

## O=C(CCCCCCC(=O)Nc1ccccc1)NO [vorinostat]
8.3 μM concentration vs DMSO controls
  Volcano plot of genes over- and under-expressed upon treatment: number of genes with significantly altered expression
8.3 μM vorinostat vs DMSO controls
  Gene Set Enrichment Analysis (GESA) of differential gene expression against Broad Institute "Hallmarks" gene sets: down-regulation of the cell cycle and p53 pathways, E2F targets, cell cycle checkpoints and MYC targets
Various concentrations
  PCA analyses of gene expression of compound-grouped samples vs DMSO controls: Gradient of differences
